Assays:
LuxN F202A = settings: even at 500 μM AI-1, EC50 could not be assigned
LuxN E233A = settings: even at 500 μM AI-1, EC50 could not be assigned
LuxN S205P = settings: even at 500 μM AI-1, EC50 could not be assigned
[1] = test system: LuxN F163A/R245L/S184N/G271D; settings: quadruple mutant LuxN F163A/R245L/S184N/G271D; EC50 could not be determined
LuxN P226T = settings: even at 500 μM AI-1, EC50 could not be assigned
[2] = test system: Chromobacterium violaceum

SMILES | Light production phenotype with AI-1 (LuxN F202A) | Light production phenotype with AI-1 (LuxN E233A) | Light production phenotype with AI-1 (LuxN S205P) | Light production phenotype with AI-1 [1] | Light production phenotype with AI-1 (LuxN P226T) | Median survival of C. elegans [2] [days]
CC(O)CC(=O)NC1CCOC1=O (stereo not drawn) [AI-1, 3-hydroxybutanoyl homoserine lactone] | dark phenotype | dark phenotype | dark phenotype | constitutively bright at all AI-1 concentrations | dark phenotype | 
N[C@H]1CCOC1=O [HSL] |  |  |  |  |  | 4

From patent US9415040B2 (priority 2008, dated 2016)
